These results are taken from patent US20060167057A1, “Compounds for the treatment of CNS and amyloid associated diseases” (priority 2004, published 2006).

Series [1] has as its target T1, L1 transport system (large neutral amino acid carrier, L1-system carrier) (Rattus norvegicus, UniProt Q63016).
T1 construct: functionality of their endogenous transporters such as the L1-system carrier; endogenous in cells; host or cells: rat primary cerebrovascular (brain microcapillary) endothelial cells, RBEC
As to the kind of experiment: Competitive binding assay to the brain L1 transport system (L-[U-14C]phenylalanine on rat primary cerebrovascular endothelial cells). The procedure, abridged:
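Cells were primary cerebral microvascular endothelial cells from cortices of 24-day-old rats, isolated by collagenase/DNAse digestion, dextran separation and mesh filtration.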

For series [2], the system named is HUVEC. Description: Cellular toxicity assay on HUVEC (WST-1 viability). It is filed as cell-based, human. Particulars: 24 hours, <75% considered toxic. On the procedure: Compound samples in PBS (without Ca^+2, Mg^+2)-glucose 3 mM-HEPES 10 mM—DMSO 1%, as prepared in Example 1, were thawed and left for at least 30 minutes at 20-23° C. before preparation of the following sub-dilutions for the compound toxicity assay: • 100 μL of stock compound solution were added to 900 μL PBSD-1 [diluted 1:10 for a final 1:10 dilution] • 100 μL (1/10 dilution above) were added to 900 μL PBSD-1 [diluted 1:10 for a final 1:100 dilution] Culture of HUVEC
Endothelial cells from human umbilical cord (HUV-EC-C or HUVEC) were purchased form American Type Culture Collection (ATCC, CRL-1730) and cultured according to the manufacturer's protocol. A 1-mL frozen aliquot of sub-cultured cells was thawed in a 37° C. water bath and centrifuged following addition of 5 mL of medium. After re-suspension in 5 mL medium, cells were seeded in a TC80 cm^2 flask pre-coated with 0.1% gelatin. Culture medium was replaced every 3-4 days and cells monitored until confluency was reached.
A sterile stock solution of 0.5 mM of camptothecin (Sigma) was prepared by dissolving a weighed amount of 0.0085 g in 50 mL of double distilled water at 37° C. in a water bath. The solution was vortexed, then filtered through a 0.22-μm filter unit and kept at 4° C. for the duration of the toxicity assays.
From the stock solution, concentrations of 60, 75, 80, 100, 150, 200 and 250 nM of camptothecin were prepared in culture diluent containing 1% DMSO.
HUVEC were cultured for 4 days in gelatin-coated 96-well plates, following seeding with 40 μL/well of a cellular suspension of 1×10^5 cells/mL. Culture media was replaced every 3-4 days of culture until confluency was reached.
On the day of the toxicity assay, the conditioned culture media was removed from the wells and 90 μL of culture medium containing 1% DMSO was distributed in the plate. A volume of 10 μL of the stock solution, 1:10 and 1:100 dilutions of the compounds in PBS-glucose-HEPES-DMSO 1% were added to the appropriate wells (100-μL total volume/well). A volume of 100 μL of camptothecin dilutions and culture medium containing 1% DMSO was also distributed into the plate. Cells were incubated at 37° C. of 24 hours and then 10 μL of the tetrazolium salt WST-1 solution were added to cells and incubated for an extra 90 minutes at 37° C. The absorbance that was associated to the cellular viability was measured at 450nm on the SpectraFluor Tecan reader, and the raw data processed.
The intrinsic cellular toxicity of the compounds was determined for each concentration of every compound on HUVEC. The viability percentage was assessed (OD sample/OD control) ×100% and any value <75% viability was considered toxic. The following table, Table 5, lists the few compounds that presented at least one toxic concentration.
A general note: Formazan colour is commonly taken as a measure of viable cells.

For series [3], the system named is Apolipoprotein E-Aβ interaction. As to the kind of experiment: Apolipoprotein E-Aβ interaction assay. The conditions noted are these: 200 μM test compound, ApoE/Aβ alone = 100%. The format is binding. As to the method: The level of interaction between Apolipoprotein E and Aβ was measured for five inventive compounds to determine whether, under the specific conditions of the present example, the compounds would inhibit the interaction. Nunc-Immuno Maxisorp 96-well microtiter plates were coated with 1 μM HFIP-disaggregated Aβ in 0.1 M NaHCO3 pH 9.6 for 2 hours and 15 minutes at 37°, washed two times in TBS (100 mM Tris-HCl, pH 7.5, 150 mM NaCl), and wells were blocked with 1% fatty-acid free BSA in TBS overnight at 4°.
Test compounds were prepared in either TBS or DMSO at a final concentration of either 2 mM or 10 mM respectively. Recombinant ApoE (Fitzgerald Industries Int.) was prepared in 700 mM NH4HCO3 at a final concentration of 0.44 mg/mL to prevent monomer assembly and stored as aliquots at −20°. 3.41 μg/mL of purified ApoE was pre-incubated in the presence of 200 μM test compounds, all in triplicate, in 1% BSA/TBS in a 96-well transfer plate for one hour and then added to the Aβ-coated wells for an additional two hours with gentle shaking at 37° to allow ApoE/Aβ association. Plates were washed three times in TBS to remove excess ApoE and incubated first with 0.125 μg/mL mouse monoclonal anti-ApoE antibody (BD Bioscience) for 1 hour, washed and then incubated with 0.26 μg/mL horse-radish peroxidase conjugated goat anti-IgG antibody (Pierce) for 1 hour in 1% BSA/TBS-T (0.05% Tween-20). After washing, wells were incubated with Sure Blue™ TMB-1 peroxidase substrate (KPL) for 30 minutes. The reaction was stopped using 1N HCl. Absorbance values at 450 nm were measured using TECAN plate reader and reflect the amount of ApoE bound to Aβ in the wells. Data were expressed as a percentage of ApoE/Aβ complexes by arbitrarily setting ApoE/Aβ alone at 100%. All compounds were tested at least twice.

Series [4] has as its system SH-SY5Y cells. Description: Hoechst staining assay of Aβ1-42-induced apoptosis. The format is cell-based. The conditions noted are these: Homo sapiens, 10 μM Aβ1-42, 200 μM compound, 24 hours, read-out: inhibition of Aβ-induced cellular apoptosis at DNA level. On the procedure:
SH-SY5Y cells were cultured and sub-cultured according to ATCC's recommendations. Cells were grown in a culture medium containing 10% fetal bovine serum (FBS), 1× non-essential amino acids in a 1:1 mixture of Eagle's minimum essential medium and Ham's F12 medium.
For passage, cells were trypsinized with 0.25% (w/vol) Trypsin/Ethylene-diaminetetraacetic (EDTA) for 5 min at 37° C., and then centrifuged for 5 min at 300× g (GS-6R Beckman Centrifuge). The pellet was resuspended in the culture medium and the cell density was adjusted.
Synthetic Aβ1-42 is purchased from American Peptide Company, Sunnyvale, Calif. […] The exact concentration of the solution is calculated by measuring the optical density at 280 nm. […]
Nuclear morphology was observed using an Olympus fluorescent microscope IX50 equipped with an Olympus Camera (20× objectif and a bandpass filter (Ex/Em: 355 nm/465 nm). Live cells and cells considered morphologically apoptotic were counted. Apoptotic nuclei of undifferentiated SH-SY5Y appear condensed and occasionally fragmented (representative pictures of Hoechst staining are in FIGS. 1A-1B for vehicle and 2A-2B for Aβ).
Five random fields were captured for each condition in a blinded fashion. Apoptotic and normal nuclei in each field were quantified by manual examination. […] The total number of cells counted in each condition ranged from 120 to 550. […]

The inhibition is the share of the control response that was lost under treatment.

T1 sequence (Q63016 whole entry): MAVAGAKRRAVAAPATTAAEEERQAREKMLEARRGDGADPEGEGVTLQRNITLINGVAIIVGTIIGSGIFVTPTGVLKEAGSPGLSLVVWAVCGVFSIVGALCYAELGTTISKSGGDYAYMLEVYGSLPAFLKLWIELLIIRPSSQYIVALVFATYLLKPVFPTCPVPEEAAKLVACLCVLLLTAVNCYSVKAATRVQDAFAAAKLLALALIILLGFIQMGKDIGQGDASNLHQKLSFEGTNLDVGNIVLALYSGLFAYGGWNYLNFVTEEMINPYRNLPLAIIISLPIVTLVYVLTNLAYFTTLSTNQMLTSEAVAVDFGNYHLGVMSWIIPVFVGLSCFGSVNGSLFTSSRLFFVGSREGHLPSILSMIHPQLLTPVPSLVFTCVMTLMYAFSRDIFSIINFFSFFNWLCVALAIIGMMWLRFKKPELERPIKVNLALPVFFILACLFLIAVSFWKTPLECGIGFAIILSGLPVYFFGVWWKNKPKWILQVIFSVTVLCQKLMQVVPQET
T1 sequence (Q794F9 whole entry partner): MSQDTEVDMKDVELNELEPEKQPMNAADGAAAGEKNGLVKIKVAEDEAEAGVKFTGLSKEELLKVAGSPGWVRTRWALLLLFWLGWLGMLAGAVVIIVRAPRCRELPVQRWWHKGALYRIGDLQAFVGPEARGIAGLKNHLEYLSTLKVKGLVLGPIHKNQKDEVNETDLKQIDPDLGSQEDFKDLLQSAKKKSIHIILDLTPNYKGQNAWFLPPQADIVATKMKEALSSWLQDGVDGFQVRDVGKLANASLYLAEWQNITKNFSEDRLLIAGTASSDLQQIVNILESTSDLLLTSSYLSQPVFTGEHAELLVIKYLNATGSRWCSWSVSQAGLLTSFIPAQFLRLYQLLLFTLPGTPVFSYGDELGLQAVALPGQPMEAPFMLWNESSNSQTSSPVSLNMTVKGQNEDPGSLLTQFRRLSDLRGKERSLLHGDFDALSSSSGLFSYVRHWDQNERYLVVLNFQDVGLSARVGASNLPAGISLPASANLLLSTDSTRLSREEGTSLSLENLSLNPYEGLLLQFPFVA

For `NC(Cc1cccc(CSc2nc3ccccc3o2)n1)C(=O)O` (centres unmarked) [Compound 30], the “Comparison with the Binding of Phenylalanine” value (from here on “Comparison with the Binding”) in series [1] (10^−4 M) is on record as 1 (0 < X < 10 Rank 1); in series [1] (10^−5 M), 2 (10 < X < 20 Rank 2); in series [1] (10^−6 M) it was 3 (X > 20 Rank 3). Also, the “Viability (%)” value is listed as 110% in series [2] (10^−4 M), 112% in series [2] (10^−5 M) and 8% in series [2] (10^−6 M).
With `O=C(NC(Cc1cccc(CSc2nnc[nH]2)n1)C(=O)O)NC(c1ccccc1)c1ccccc1` (centres unmarked) [Compound 37], the figures for the “Comparison with the Binding” value in series [1] (10^−4 M), in series [1] (10^−5 M) and in series [1] (10^−6 M) were 2 (10 < X < 20 Rank 2), 3 (X > 20 Rank 3) and 2 (10 < X < 20 Rank 2), respectively. Besides, the “Viability (%)” value in series [2] (10^−4 M) is 94%; in series [2] (10^−5 M) it was 50%; in series [2] (10^−6 M) it was 87%.
For `O=C(NC(Cc1cccc(CSc2ncnc3[nH]ncc23)n1)C(=O)O)NC(c1ccccc1)c1ccccc1` (centres unmarked) [Compound 65], the “Viability (%)” value is given as 107% in series [2] (10^−4 M), 68% in series [2] (10^−5 M) and 109% in series [2] (10^−6 M).
As for `O=C(O)C(Cc1cccc(CSc2nnc[nH]2)n1)NS(=O)(=O)c1ccc(F)cc1` (centres unmarked) [Compound 66], the “Comparison with the Binding” value is listed as 2 (10 < X < 20 Rank 2) in series [1] (10^−4 M), 3 (X > 20 Rank 3) in series [1] (10^−5 M) and 0 (X < 0 Rank 0) in series [1] (10^−6 M). The results for the “Viability (%)” value in series [2] (10^−4 M), in series [2] (10^−5 M) and in series [2] (10^−6 M) were 117%, 114% and 67%, respectively.
On to `COc1ccc(-n2nnnc2SCc2cccc(C[C@H](N)C(=O)O)c2)cc1` [drawing 529], for which the figures for the “Aβ-ApoE % Complex” value in series [3] (first value of the cell) and in series [3] (second value of the cell) were 98% and 97%, respectively.
The like results for `NC(Cc1cccc(CSc2nnnn2-c2ccccc2)c1)C(=O)O` (centres unmarked) [drawing 530] were, in that order, 107% and 97%.
Turning to `N[C@@H](Cc1cccc(CSc2nnc(-c3ccccc3)[nH]2)c1)C(=O)O` [drawing 531], the “Aβ-ApoE % Complex” value in series [3] (first value of the cell) stood at 88%; in series [3] (second value of the cell), 94%.
As for `N[C@@H](Cc1cccc(CSc2nc3ccccc3[nH]2)n1)C(=O)O` [drawing 532], the “Aβ-ApoE % Complex” value worked out at 94% in series [3] (first value of the cell) and 112% in series [3] (second value of the cell).
The like results for `N[C@@H](Cc1cccc(CSc2nnc(-c3ccncc3)o2)c1)C(=O)O` [drawing 533] were, in that order, 101% and 94%.
With `N[C@@H](Cc1cccc(CSc2nnc(-c3ccccc3)[nH]2)c1)C(=O)O` [drawing 537], the inhibition at 200 µM in series [4] was determined as 22.5%.
